According to US20250263459A1, “STABILIZED PACAP PEPTIDE” (SENJU PHARMACEUTICAL CO., LTD., priority 2019, published 2025):
Non-standard residues stand in square brackets, D forms with d. Residues, ends and D or L forms follow the SMILES beside them. ξ: configuration not given here. ξAla(tetrazol-5-yl) = NC(Cc1nnn[nH]1)C(=O)O; Aib = CC(C)(N)C(=O)O

What was measured:
[1] = Stability test 1: survival rate of peptide in phosphate buffer (pH 7.0) after storage, HPLC; assay type: physicochemical; conditions: 100 μM peptide, 0.1% phosphate buffer pH 7.0, 40° C., 4 weeks (Table 4)
Experimental: The 1.0 mM peptide solutions were then diluted with phosphate buffer to 100 μM. […] The prepared peptide solutions were incubated for one month or 2 months in a 40° C. thermostatic bath to obtain stored samples.
Using the total weight of the aqueous peptide solution and storage vessel as the specimen weight, measurements were recorded as the specimen weights before storage and the specimen weights after storage under different storage conditions. The empty weight of the storage vessel was also measured, and the moisture permeability was determined by the following formula.
After stirring the standard sample and the stored samples with a vortex mixer, each peptide solution was transferred to an HPLC vial (Deactivated Qsert vial by Waters Co.). Reverse-phase HPLC (HPLC system: Prominence by Shimadzu Corp.) was conducted under the conditions shown in Table 3 below for analysis of the peptide solutions, and chromatograms were obtained.
The peak area value for the peptide in the chromatogram was calculated, and the survival rate (survival rate before correction for water) was calculated using formula (2). The survival rate after correction for water was also calculated from the survival rate before correction for water using formula (3) to take into account the permeability of the container.
Peptide solutions prepared by the same method as [Measuring sample preparation 1] for the peptides synthesized in Example 2 (peptides 13 to 16) were incubated for 2 weeks and 8 weeks in a thermostatic bath at 40° C. to obtain stored samples.
Peptide solutions prepared by the same method as [Measuring sample preparation 1] for the peptides synthesized in Example 2 (peptides 17 to 21) were incubated for 4 weeks in a thermostatic bath at 40° C. to obtain stored samples.
A peptide solution prepared by the same method as [Measuring sample preparation 1] for peptide 22 synthesized in Example 2 was incubated for 1 week and 4 weeks in a thermostatic bath at 40° C. to obtain stored samples.

[2] = as above; assay type: physicochemical; conditions: 100 μM peptide, 0.1% phosphate buffer pH 7.0, head prints 80° C., 8 weeks (Table 4)

## CC[C@H](C)[C@H](NC(=O)CNC(=O)C(Cc1nnn[nH]1)NC(=O)[C@H](CO)NC(=O)[C@@H](N)Cc1c[nH]cn1)C(=O)N[C@@H](Cc1ccccc1)C(=O)N[C@@H](C)C(=O)NC(Cc1nnn[nH]1)C(=O)N[C@@H](C)C(=O)N[C@@H](Cc1ccc(O)cc1)C(=O)N[C@@H](CO)C(=O)N[C@@H](CCCNC(=N)N)C(=O)N[C@@H](Cc1ccc(O)cc1)C(=O)N[C@@H](CCCNC(=N)N)C(=O)N[C@@H](CCCCN)C(=O)N[C@@H](CCC(N)=O)C(=O)N[C@@H](CCSC)C(=O)N[C@@H](C)C(=O)N[C@H](C(=O)N[C@@H](CCCCN)C(=O)N[C@@H](CCCCN)C(=O)N[C@@H](Cc1ccc(O)cc1)C(=O)N[C@@H](CC(C)C)C(=O)N[C@@H](C)C(=O)N[C@@H](C)C(=O)N[C@H](C(=O)N[C@@H](CC(C)C)C(N)=O)C(C)C)C(C)C (stereo partly drawn) [Peptide 1, HSTzGI FATzAY SRYRK QMAVK KYLAA VL] (H-HS[ξAla(tetrazol-5-yl)]GIFA[ξAla(tetrazol-5-yl)]AYSRYRKQMAVKKYLAAVL-NH2)
[1]
  survival rate after correction for water, 40° C. 4 week: 91.1%
[2]
  survival rate after correction for water, 80° C. 8 week: 81.5%

## CC[C@H](C)[C@H](NC(=O)CNC(=O)C(Cc1nnn[nH]1)NC(=O)[C@H](CO)NC(=O)[C@@H](N)Cc1c[nH]cn1)C(=O)N[C@@H](Cc1ccccc1)C(=O)N[C@@H](C)C(=O)NC(Cc1nnn[nH]1)C(=O)N[C@@H](CO)C(=O)N[C@@H](Cc1ccc(O)cc1)C(=O)N[C@@H](C)C(=O)N[C@@H](CCCNC(=N)N)C(=O)N[C@@H](Cc1ccc(O)cc1)C(=O)N[C@@H](CCCNC(=N)N)C(=O)N[C@@H](CCCCN)C(=O)N[C@@H](CCC(N)=O)C(=O)N[C@@H](CCSC)C(=O)N[C@@H](C)C(=O)N[C@H](C(=O)N[C@@H](CCCCN)C(=O)N[C@@H](CCCCN)C(=O)N[C@@H](Cc1ccc(O)cc1)C(=O)N[C@@H](CC(C)C)C(=O)N[C@@H](C)C(=O)N[C@@H](C)C(=O)N[C@H](C(=O)N[C@@H](CC(C)C)C(N)=O)C(C)C)C(C)C (stereo partly drawn) [Peptide 2, HSTzGI FATzSY ARYRK QMAVK KYLAA VL] (H-HS[ξAla(tetrazol-5-yl)]GIFA[ξAla(tetrazol-5-yl)]SYARYRKQMAVKKYLAAVL-NH2)
[1]
  survival rate after correction for water, 40° C. 4 week: 91.9%
[2]
  survival rate after correction for water, 80° C. 8 week: 83.7%

## CC[C@H](C)[C@H](NC(=O)CNC(=O)C(Cc1nnn[nH]1)NC(=O)[C@H](CO)NC(=O)[C@@H](N)Cc1c[nH]cn1)C(=O)N[C@@H](Cc1ccccc1)C(=O)N[C@@H](C)C(=O)NC(Cc1nnn[nH]1)C(=O)NC(C)(C)C(=O)N[C@@H](Cc1ccc(O)cc1)C(=O)N[C@@H](CO)C(=O)N[C@@H](CCCNC(=N)N)C(=O)N[C@@H](Cc1ccc(O)cc1)C(=O)N[C@@H](CCCNC(=N)N)C(=O)N[C@@H](CCCCN)C(=O)N[C@@H](CCC(N)=O)C(=O)N[C@@H](CCSC)C(=O)N[C@@H](C)C(=O)N[C@H](C(=O)N[C@@H](CCCCN)C(=O)N[C@@H](CCCCN)C(=O)N[C@@H](Cc1ccc(O)cc1)C(=O)N[C@@H](CC(C)C)C(=O)N[C@@H](C)C(=O)N[C@@H](C)C(=O)N[C@H](C(=O)N[C@@H](CC(C)C)C(N)=O)C(C)C)C(C)C (stereo partly drawn) [Peptide 4, HSTzGI FATzAiY SRYRK QMAVK KYLAA VL] (H-HS[ξAla(tetrazol-5-yl)]GIFA[ξAla(tetrazol-5-yl)][Aib]YSRYRKQMAVKKYLAAVL-NH2)
[1]
  survival rate after correction for water, 40° C. 4 week: 95.4%
[2]
  survival rate after correction for water, 80° C. 8 week: 88.4%

## CC[C@H](C)[C@H](NC(=O)CNC(=O)C(Cc1nnn[nH]1)NC(=O)[C@H](CO)NC(=O)[C@@H](N)Cc1c[nH]cn1)C(=O)N[C@@H](Cc1ccccc1)C(=O)N[C@@H](C)C(=O)NC(Cc1nnn[nH]1)C(=O)N[C@@H](CO)C(=O)N[C@@H](Cc1ccc(O)cc1)C(=O)NC(C)(C)C(=O)N[C@@H](CCCNC(=N)N)C(=O)N[C@@H](Cc1ccc(O)cc1)C(=O)N[C@@H](CCCNC(=N)N)C(=O)N[C@@H](CCCCN)C(=O)N[C@@H](CCC(N)=O)C(=O)N[C@@H](CCSC)C(=O)N[C@@H](C)C(=O)N[C@H](C(=O)N[C@@H](CCCCN)C(=O)N[C@@H](CCCCN)C(=O)N[C@@H](Cc1ccc(O)cc1)C(=O)N[C@@H](CC(C)C)C(=O)N[C@@H](C)C(=O)N[C@@H](C)C(=O)N[C@H](C(=O)N[C@@H](CC(C)C)C(N)=O)C(C)C)C(C)C (stereo partly drawn) [Peptide 5, HSTzGI FATzSY AiRYRK QMAVK KYLAA VL] (H-HS[ξAla(tetrazol-5-yl)]GIFA[ξAla(tetrazol-5-yl)]SY[Aib]RYRKQMAVKKYLAAVL-NH2)
[1]
  survival rate after correction for water, 40° C. 4 week: 94.4%
[2]
  survival rate after correction for water, 80° C. 8 week: 85.4%

## CC[C@H](C)[C@H](NC(=O)CNC(=O)C(Cc1nnn[nH]1)NC(=O)[C@H](CO)NC(=O)[C@@H](N)Cc1c[nH]cn1)C(=O)N[C@@H](Cc1ccccc1)C(=O)N[C@@H](C)C(=O)NC(Cc1nnn[nH]1)C(=O)NC(C)(C)C(=O)N[C@@H](Cc1ccc(O)cc1)C(=O)NC(C)(C)C(=O)N[C@@H](CCCNC(=N)N)C(=O)N[C@@H](Cc1ccc(O)cc1)C(=O)N[C@@H](CCCNC(=N)N)C(=O)N[C@@H](CCCCN)C(=O)N[C@@H](CCC(N)=O)C(=O)N[C@@H](CCSC)C(=O)N[C@@H](C)C(=O)N[C@H](C(=O)N[C@@H](CCCCN)C(=O)N[C@@H](CCCCN)C(=O)N[C@@H](Cc1ccc(O)cc1)C(=O)N[C@@H](CC(C)C)C(=O)N[C@@H](C)C(=O)N[C@@H](C)C(=O)N[C@H](C(=O)N[C@@H](CC(C)C)C(N)=O)C(C)C)C(C)C (stereo partly drawn) [Peptide 6, HSTzGI FATzAiY AiRYRK QMAVK KYLAA VL] (H-HS[ξAla(tetrazol-5-yl)]GIFA[ξAla(tetrazol-5-yl)][Aib]Y[Aib]RYRKQMAVKKYLAAVL-NH2)
[1]
  survival rate after correction for water, 40° C. 4 week: 94.0%
[2]
  survival rate after correction for water, 80° C. 8 week: 87.5%

## CC[C@H](C)[C@H](NC(=O)CNC(=O)C(Cc1nnn[nH]1)NC(=O)[C@H](CO)NC(=O)[C@@H](N)Cc1c[nH]cn1)C(=O)N[C@@H](Cc1ccccc1)C(=O)N[C@H](C(=O)NC(Cc1nnn[nH]1)C(=O)NC(C)(C)C(=O)N[C@@H](Cc1ccc(O)cc1)C(=O)NC(C)(C)C(=O)N[C@@H](CCCNC(=N)N)C(=O)N[C@@H](Cc1ccc(O)cc1)C(=O)N[C@@H](CCCNC(=N)N)C(=O)N[C@@H](CCCCN)C(=O)N[C@@H](CCC(N)=O)C(=O)N[C@@H](CCSC)C(=O)N[C@@H](C)C(=O)N[C@H](C(=O)N[C@@H](CCCCN)C(=O)N[C@@H](CCCCN)C(=O)N[C@@H](Cc1ccc(O)cc1)C(=O)N[C@@H](CC(C)C)C(=O)N[C@@H](C)C(=O)N[C@@H](C)C(=O)N[C@H](C(=O)N[C@@H](CC(C)C)C(N)=O)C(C)C)C(C)C)[C@@H](C)O (stereo partly drawn) [Peptide 7, HSTzGI FTTzAiY AiRYRK QMAVK KYLAA VL] (H-HS[ξAla(tetrazol-5-yl)]GIFT[ξAla(tetrazol-5-yl)][Aib]Y[Aib]RYRKQMAVKKYLAAVL-NH2)
[1]
  survival rate after correction for water, 40° C. 4 week: 91.8%
[2]
  survival rate after correction for water, 80° C. 8 week: 83.5%
